Columns and labels:
Autotaxin (Homo sapiens) [1] = target: Autotaxin (Homo sapiens) (UniProt Q13822); assay: Inhibition of human recombinant ATX at 100 uM after 16 hrs; values are per cent of control
Autotaxin (Homo sapiens) [2] = target: Autotaxin (Homo sapiens) (UniProt Q13822); assay: Inhibition of human recombinant ATX at 10 uM after 16 hrs; values are per cent of control
Autotaxin (Homo sapiens) [3] = target: Autotaxin (Homo sapiens) (UniProt Q13822); assay: Inhibition of human recombinant ATX at 1 uM after 16 hrs; values are per cent of control

Row | SMILES | residual activity (Autotaxin (Homo sapiens) [1]) | residual activity (Autotaxin (Homo sapiens) [2]) | residual activity (Autotaxin (Homo sapiens) [3])
1 | CCCCCCCCCCCCCCCC(=O)N[C@@H](Cc1ccc(OCC2CCCCC2)cc1)C(O)CP(=O)(O)O (single isomer, unassigned; diastereomer b) | 80% | 80% | 80%
2 | CCCCCCCCCCCCCCCC(=O)N[C@@H](Cc1ccc(OCc2cc(OCC(F)(F)F)ccn2)cc1)C(O)CP(=O)(O)O (single isomer, unassigned; diastereomer b) | 56% | 83% | 103%
3 | CCCCCCCCCCCCCCCC(=O)N[C@@H](Cc1ccc(OCc2ccccc2)cc1)C(O)CP(=O)(O)O (single isomer, unassigned; diastereomer b) | 78% | 83% | 76%
4 | CCCCCCCCCCCCCCCC(=O)N[C@H](Cc1ccc(OCCCCC)cc1)C(O)CP(=O)(O)O (single isomer, unassigned; diastereomer b) | 70% | 82% | 86%
5 | CCCCCCCCCCCCCCCC(=O)N[C@H](Cc1ccc(OCc2ccccc2)cc1)C(O)CP(=O)(O)O (single isomer, unassigned; diastereomer b) | 83% | 81% | 80%
6 | CCCCCCCCCCCCCCCC(=O)N[C@H](Cc1ccc(OCCC)cc1)C(O)CP(=O)(O)O (stereo in doubt) | 72% | 79% | 80%
7 | CCCCCCCCCCCCCCCC(=O)N[C@@H](Cc1ccc(OCc2ncc(C)c(OC)c2C)cc1)C(O)CP(=O)(O)O (stereo in doubt; f17) | 6% | 13% | 27%
8 | CCCCCCCCCCCCCCCC(=O)N[C@H](Cc1ccc(OC)cc1)C(O)CP(=O)(O)O (stereo in doubt; f20) | 82% | 84% | 95%
9 | CCCCCCCCCCCCCCCC(=O)N[C@@H](Cc1ccc(OCCC(C)C)cc1)C(O)CP(=O)(O)O (stereo in doubt; f33) | 82% | 104% | 104%
10 | CCCCCCCCCCCCCCCCCC(=O)N[C@@H](Cc1ccc(OCc2ncc(C)c(OC)c2C)cc1)C(O)CP(=O)(O)O (stereo in doubt; f39) | 81% | 91% | 101%

Now from value to compound:

Row | residual activity (Autotaxin (Homo sapiens) [1]) | residual activity (Autotaxin (Homo sapiens) [2]) | residual activity (Autotaxin (Homo sapiens) [3]) | SMILES
11 | 83% | 82% | 83% | CCCCCCCCCCCCCCCC(=O)N[C@H](Cc1ccc(OCc2ccccc2)cc1)C(O)CP(=O)(O)O (single isomer, unassigned; diastereomer a)
12 | 83% | 100% | 100% | CCCCCCCCCCCCCCCC(=O)N[C@@H](Cc1ccc(OCCC)cc1)C(O)CP(=O)(O)O (single isomer, unassigned; diastereomer b)
13 | 70% | 90% | 94% | CCCCCCCCCCCCCCCC(=O)N[C@@H](Cc1ccc(OCCCCC)cc1)C(O)CP(=O)(O)O (single isomer, unassigned; diastereomer b)
14 | 90% | 108% | 108% | CCCCCCCCCCCCCCCC(=O)N[C@H](Cc1ccc(OCCC)cc1)C(O)CP(=O)(O)O (single isomer, unassigned; diastereomer b)
15 | 69% | 78% | 92% | CCCCCCCCCCCCCCCC(=O)N[C@H](Cc1ccc(OCc2ccccn2)cc1)C(O)CP(=O)(O)O (single isomer, unassigned; diastereomer b)
16 | 47% | 64% | 69% | CCCCCCCCCCCCCCCC(=O)N[C@H](Cc1ccc(OCc2ncc(C)c(OC)c2C)cc1)C(O)CP(=O)(O)O (single isomer, unassigned; diastereomer b)
17 | 32% | 80% | 92% | CCCCCCCCCCCCCCCC(=O)N[C@@H](Cc1ccc(OCc2cc(OCC(F)(F)F)ccn2)cc1)C(O)CP(=O)(O)O (stereo in doubt; f3)
18 | 60% | 76% | 103% | CCCCCCCCCCCCCCCC(=O)N[C@H](Cc1ccc(OCc2ccccn2)cc1)C(O)CP(=O)(O)O (stereo in doubt; f9)
19 | 8% | 21% | 63% | CCCCCCCCCCCCCCCC(=O)N[C@@H](Cc1ccc(OCc2ncc(C)c(OC)c2C)cc1)C(O)CP(=O)(O)O (stereo in doubt; f18)
20 | 69% | 80% | 84% | CCCCCCCCCCCCCCCC(=O)N[C@@H](Cc1ccc(OC)cc1)C(O)CP(=O)(O)O (stereo in doubt; f22)
21 | 91% | 101% | 106% | CCCCCCCCCCCCCCCC(=O)N[C@@H](Cc1ccc(OCCC(C)C)cc1)C(O)CP(=O)(O)O (stereo in doubt; f34)
22 | 58% | 68% | 77% | CCCCCCCC/C=C/CCCCCCCC(=O)N[C@@H](Cc1ccc(OCc2ncc(C)c(OC)c2C)cc1)C(O)CP(=O)(O)O (stereo in doubt; f42)

— ChEMBL document CHEMBL1144604, “Synthesis and biological evaluation of phosphonate derivatives as autotaxin (ATX) inhibitors” (Bioorg Med Chem Lett, 2007)
